From patent US10206388B2, “Formulation component” (SYNGENTA LIMITED, priority 2011, dated 2019) come the findings set out here.

What all share (assay type): in vivo
In experiment [1] the test system is four weed species (ALOMY, AVEFA, LOLPE, SETVI). Kind of experiment: Glasshouse weed test, pinoxaden with adjuvants, mean across species. Particulars: mean over two rates. The procedure: (§1) The aromatic ester Finsolv® TN (C12-C15 alkyl benzoate) was tested in a glasshouse against four weed species using the herbicide pinoxaden. An agrochemical composition was prepared containing 0.2% v/v of the adjuvant in a track sprayer and was applied at a volume of 200 liters per hectare. Pinoxaden was applied at either 7.5 or 15 grams of pesticide per hectare on each of the weed species. […] The weed species and their growth stage at spraying were Alopecurus myosuroides (ALOMY; growth stage 13), Avena fatua (AVEFA; growth stage 12); Lolium perenne (LOLPE; growth stage 13), Setaria viridis (SETVI; growth stage 14).
(§2) Each spray test was replicated three times. The efficacy of the herbicide was assessed visually and expressed as a percentage of the leaf area killed. Samples were assessed at time periods of 7, 14 and 20 days following application. The results shown in Table 12 below are mean averages over the two rates of pinoxaden, three replicates and the three assessment timings, and are compared to the efficacy of pinoxaden in the absence of an adjuvant and pinoxaden in the presence of triethylhexyl phosphate.
A second experiment was conducted to assess the efficacy of Finsolv® TN as an adjuvant for pinoxaden. This was carried out as outlined above, with the following change: samples were assessed at 14 and 20 days post application. The results shown below in Table 13 are mean averages over the two rates of pinoxaden, three replicates, the two assessment timings, and the four weed species, and are compared to the efficacy of pinoxaden in the absence of an adjuvant and pinoxaden in the presence of the common adjuvant methyl oleate.
(§3) An agrochemical composition was prepared containing 0.2% v/v of the adjuvant in a track sprayer and was applied at a volume of 200 liters per hectare. Pinoxaden was applied at either 7.5 or 15 grams of pesticide per hectare on each of the weed species. […] The weed species and their growth stage at spraying were Alopecurus myosuroides (ALOMY; growth stage 13), Avena fatua (AVEFA; growth stage 12); Lolium perenne (LOLPE; growth stage 13), Setaria viridis (SETVI; growth stage 14).
Each spray test was replicated three times. The efficacy of the herbicide was assessed visually and expressed as a percentage of the leaf area killed. Samples were assessed at time periods of 7, 14 and 20 days following application. The results shown in Table 17 below are mean averages over the two rates of pinoxaden, three replicates and the three assessment timings, and are compared to the efficacy of pinoxaden in the absence of an adjuvant and pinoxaden in the presence of Brij®96.
as §3, with “hectare. The adjuvant oils were emulsified using a small amount of the surfactant Pluronic® PE 10500, which was present in the composition at a concentration of 0.02% v/v.” for “hectare.”, “13-14).” for “14).”
Each spray test was replicated three times. The efficacy of the herbicide was assessed visually and expressed as a percentage of the leaf area killed. Samples were assessed at time periods of 14 and 21 days following application. The results shown in Table 18 below are mean averages over the two rates of pinoxaden, three replicates and the two assessment timings, and are compared to the efficacy of pinoxaden in the absence of an adjuvant and pinoxaden in the presence of tris 2ethylhexylphosphate (TEHP).
The aromatic esters Finsolv® TN and the aromatic ester ethoxylate Dermol 25-3B were tested in a glasshouse against four weed species using the herbicide pinoxaden. […]

For experiment [2], the system named is Alopecurus myosuroides (ALOMY). Kind of experiment: Glasshouse weed test, pinoxaden with adjuvants. To be noted: Table 12, Example 8: pinoxaden 7.5 or 15 g/ha; adjuvant 0.2% v/v; Atlas G5000 in spray tank; mean over two rates, three replicates, 7, 14 and 20 days. The procedure: as §1, §2
Experiment [3] relates to Avena fatua (AVEFA). Kind of experiment: Glasshouse weed test, pinoxaden with adjuvants. To be noted: Table 12, Example 8: pinoxaden 7.5 or 15 g/ha; adjuvant 0.2% v/v; Atlas G5000 in spray tank; mean over two rates, three replicates, 7, 14 and 20 days. The procedure:
as §1, §2

The subject of experiment [4] is Setaria viridis (SETVI). Kind of experiment: Glasshouse weed test, pinoxaden with adjuvants. To be noted: Table 12, Example 8: pinoxaden 7.5 or 15 g/ha; adjuvant 0.2% v/v; Atlas G5000 in spray tank; mean over two rates, three replicates, 7, 14 and 20 days. The procedure:
as §1, §2

Experiment [5] deals with Lolium perenne (LOLPE). Kind of experiment: Glasshouse weed test, pinoxaden with adjuvants. To be noted: Table 12, Example 8: pinoxaden 7.5 or 15 g/ha; adjuvant 0.2% v/v; Atlas G5000 in spray tank; mean over two rates, three replicates, 7, 14 and 20 days. The procedure:
as §1, §2

The subject of experiment [6] is four weed species (ABUTH, CHEAL, DIGSA, SETVI). Kind of experiment: Glasshouse weed test, nicosulfuron with adjuvants, mean across species. Particulars: Table 27, Example 24: nicosulfuron 30 or 60 g/ha; mean over two rates, three replicates, 14 and 21 days. The procedure:
The aromatic ester Finsolv® TN (C12-C15 alkyl benzoate) was tested in a glasshouse against four weed species using the herbicide nicosulfuron. An agrochemical composition was prepared containing 0.2% v/v of the adjuvant in a track sprayer, and was applied at a volume of 200 liters per hectare. Nicosulfuron was applied at either 30 or 60 grams of pesticide per hectare on each of the weed species. The weed species and their growth stage at spraying were Abutilon theophrasti (ABUTH; growth stage 13), Chenopodium album (CHEAL; growth stage 14), Digitaria sanguinalis (DIGSA; growth stage 13), and Setaria viridis (SETVI; growth stage 13).
Each spray test replicated three times. The efficacy of the herbicide was assessed visually and expressed as a percentage of the leaf area killed. Samples were assessed at time periods of 7, 14 and 20 days following application. The results shown in Table 6 below are mean averages over the two rates of nicosulfuron, three replicates and the three assessment timings, and are compared to the efficacy of nicosulfuron in the absence of an adjuvant, and nicosulfuron in the presence of the commercially available tank-mix adjuvant, Atplus411F®.
A second experiment was conducted to assess the efficacy of Finsolv® TN as an adjuvant in compositions of nicosulfuron. This was carried out as outlined above, with the following change: samples were assessed at 14 and 20 days post application.
The results shown in Table 7 below are mean averages over the two rates of nicosulfuron, three replicates and the two assessment timings, and are compared to the efficacy of nicosulfuron in the absence of an adjuvant, and nicosulfuron in the presence of the commercially available tank-mix adjuvant, Atplus411F®.
The aromatic esters Benzoate 1 (see Example 9), Benzoflex 354 (2,2,4-trimethyl-1,3-pentanediol dibenzoate) and Finsolv® SB (stearyl benzoate) were tested in a glasshouse against four weed species using the herbicide nicosulfuron. Nicosulfuron was applied at either 30 or 60 grams of pesticide per hectare on each of the weed species. The weed species and their growth stage at spraying were Abutilon theophrasti (ABUTH; growth stage 13), Chenopodium album (CHEAL; growth stage 14), Digitaria sanguinalis (DIGSA; growth stage 13), and Setaria viridis (SETVI; growth stage 13).
Each spray test replicated three times. The efficacy of the herbicide was assessed visually and expressed as a percentage of the leaf area killed. Samples were assessed at time periods of 14 and 20 days following application. The results shown in Table 14 below are mean averages over the two rates of nicosulfuron, three replicates and the two assessment timings, and are compared to the efficacy of nicosulfuron in the absence of an adjuvant, and nicosulfuron in the presence of the commercially available tank-mix adjuvant, Atplus411F®.
An agrochemical composition was prepared containing 0.2% v/v of the adjuvant in a track sprayer and was applied at a volume of 200 liters per hectare. The adjuvant oils were emulsified using a small amount of the surfactant Pluronic® PE 10500, which was present in the composition at a concentration of 0.02% v/v. Nicosulfuron was applied at either 30 or 60 grams of pesticide per hectare on each of the weed species. The weed species and their growth stage at spraying were Abutilon theophrasti (ABUTH; growth stage 13), Chenopodium album (CHEAL; growth stage 14-15), Digitaria sanguinalis (DIGSA; growth stage 14), and Setaria viridis (SETVI; growth stage 13-14).
Each spray test replicated three times. The efficacy of the herbicide was assessed visually and expressed as a percentage of the leaf area killed. Samples were assessed at time periods of 14 and 21 days following application. […]

For the compound `CCc1cc(C)cc(CC)c1-c1c(OC(=O)C(C)(C)C)n2n(c1=O)CCOCC2` [Pinoxaden, pinoxaden], the “Mean percentage kill, Mean across species” value in experiment [1] (Table 12, Example 8: pinoxaden 7.5 or 15 g/ha, adjuvant 0.2% v/v, Atlas G5000 in spray tank, three replicates, 7, 14 and 20 days) is listed as 2.43 B %; in experiment [1] (Table 13, Example 8 second experiment: pinoxaden 7.5 or 15 g/ha, adjuvant 0.2% v/v, three replicates, 14 and 20 days, four weed species), 0.5 B %; in experiment [1] (Table 17, Example 13: pinoxaden 7.5 or 15 g/ha, adjuvant 0.2% v/v, Atlas G5000 in spray tank, three replicates, 7, 14 and 20 days), 1.8 C %; in experiment [1] (Table 18, Example 14: pinoxaden 7.5 or 15 g/ha, adjuvant 0.2% v/v emulsified with Pluronic PE 10500 0.02% v/v, three replicates, 14 and 21 days), 2.6B %; in experiment [1] (Table 22, Example 18: absence of an adjuvant, pinoxaden 7.5 or 15 g/ha, three replicates, 14 and 21 days) it was 3.6E %; in experiment [1] (Table 26, Example 23: pinoxaden 7.5 or 15 g/ha, adjuvant 0.2% v/v, Atlas G5000, three replicates, 14 and 21 days) it was 4.0C %. Further, the “Mean percentage kill, Mean across species” value in experiment [1] (Table 32, Example 32: pinoxaden 7.5 or 15 g/ha, adjuvant 0.2% v/v, Atlas G5000, three replicates, 14 and 21 days) amounted to 3.6B %; in experiment [6], 46.6C %. In experiment [2], the “Mean percentage kill ALOMY” value is given as 1.1 B %. Also, in experiment [3], the “Mean percentage kill AVEFA” value worked out at 2.8 B %. Further, in experiment [4], the “Mean percentage kill SETVI” value worked out at 0.8 B %. Further, the “Mean percentage kill LOLPE” value in experiment [5] was determined as 5.0 B %.
